Experimental data reported in patent US8852552B2, “Agents and methods for visualizing analytes” (priority 2010, dated 2014).

Legend:
[1] = test system: Peptide (NH2-)FLNCCPGCCMEP(-COOH) [SEQ ID No 6]; assay: Complex formation with tetracysteine-tagged peptide in MOPS/MES/EDT buffer, LC-MS analysis; assay type: binding; details: probe in DMSO + 1 mM peptide, stirred 10-30 minutes
Description: Experiments were performed according to Nature Protocols Vol.3 No.9, 1527-1534, (Adams & Tsien) with minor modifications.
Materials: Peptide (NH2—)[…](—COOH) [SEQ ID No 6], M.w: 1316.63, supplied by INNOVAGEN, Sweden, MOPS sodium salt FW: 231.2 CAS [71119-22-7], MES sodium salt FW: 164.16 CAS [19767-45-4], and EDT FW:94.2 CAS [540-63-6] were used as received.
HPLC analyses employed a Waters Alliance 2795 LC system, equipped with an XBridge C18 3.0×50 mm 3.5 μm column. The mass detector had polarity ES+/polarity ES-. Solvents, A: 0.1 M NH3 in milliQ water, B: MeOH. Gradient, A: 95% 0.1 min, 0.1-4 min A:95% to B:100%, 4.0-4.6 min B:100%.
The radiodetector employed was a Raytest Star (solid cell). Chromatography with radiodetection was performed using a Kromasil C18, 5μ 250×10 mm column, and an isocratic eluent composed of 35% acetonitrile in 50 mM ammonium acetate, at a flow rate of 2.0 mL/min.
To this solution was added 200 μL of 1 mM PSMXB-4 (in DMSO). […] The reaction mixture was stirred for 30 minutes. […] The mass peaks corresponded to dianionic and trianionic species.
To this solution was added 200 μL of 1 mM PSMXB-6 (in DMSO). […] The reaction mixture was stirred for 30 minutes. […] The mass peak corresponded to the dianionic species.
The reaction mixture is stirred for 10 minutes. […] The mass peak corresponded to the dianionic species. […] HPLC purification allowed isolation of the pure, tritiated complex.

[2] = test system: unrelated peptide with N-terminal biotin; assay: Surface plasmon resonance, reference channel with unrelated biotinylated control peptide; assay type: binding; details: 100 μM injected
Excerpt: The biotinylated peptide was immobilized on a sensor chip (Sensor Chip SA BiaCore) by non-covalent capture to streptavidin according to manufacturer instructions. An unrelated peptide with N-terminal biotin was coupled to a reference channel. […] At the end of the injection phase, the sensor surface was washed (Wash arrow FIG. 1A) with […] pH7.4, 0.15 M NaCl.

| Molecule | complex formation with peptide by LC-MS [1] | interaction with unrelated control peptide [2] |
| --- | --- | --- |
| 2,5-di-(1,3,2-Dithiarsolan-2yl)-9(4-fluorophenyl)-6-[^3H3]methoxy-3-fluorone [6-[^3H3CO]-PSMXB-6] | complete conversion into the complex | – |
| O=c1ccc2c(-c3ccc(F)cc3)c3ccc(O)c([As]4SCCS4)c3oc-2c1[As]1SCCS1 [PSMXB-4, 2,5-di-(1,3,2-dithiarsolan-2-yl)-9-(4-fluorophenyl)-6-hydroxy-3-fluorone] | mass spectrum consistent with the complex | – |
| COc1ccc2c(-c3ccc(F)cc3)c3cc([As]4SCCS4)c(=O)cc-3oc2c1[As]1SCCS1 [PSMXB-6, 2,5-di-(1,3,2-Dithiarsolan-2yl)-9(4-fluorophenyl)-6-methoxy-3-fluorone] | mass spectrum consistent with the complex | No interaction was detected |
